Like-named read-outs stand apart in the source and are kept apart here.
T1: L-lysine α-oxidase (Trichoderma viride, UniProt A0A0G4DCU0)
T1 construct: mature processed form
T1 sequence (A0A0G4DCU0 77-617): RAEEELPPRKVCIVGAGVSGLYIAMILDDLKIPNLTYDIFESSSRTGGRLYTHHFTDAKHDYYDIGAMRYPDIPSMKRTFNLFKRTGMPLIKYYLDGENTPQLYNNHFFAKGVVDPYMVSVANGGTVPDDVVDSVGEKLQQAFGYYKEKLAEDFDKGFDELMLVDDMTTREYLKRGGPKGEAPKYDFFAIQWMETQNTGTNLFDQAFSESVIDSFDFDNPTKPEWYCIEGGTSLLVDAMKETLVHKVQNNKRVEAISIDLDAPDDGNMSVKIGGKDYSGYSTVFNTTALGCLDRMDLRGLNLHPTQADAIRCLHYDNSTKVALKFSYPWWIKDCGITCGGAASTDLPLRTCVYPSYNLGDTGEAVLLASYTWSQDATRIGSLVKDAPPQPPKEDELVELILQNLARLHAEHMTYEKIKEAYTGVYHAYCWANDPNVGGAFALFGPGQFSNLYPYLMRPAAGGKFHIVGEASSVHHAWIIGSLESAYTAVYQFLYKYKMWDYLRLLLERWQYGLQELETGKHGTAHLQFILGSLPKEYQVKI

B1: L-lysine α-oxidase (Trichoderma viride) (protein)
chain: T1 sequence (A0A0G4DCU0 77-617)
notes: mature processed form

Legend:
L-lysine α-oxidase [1] = target: T1, L-lysine α-oxidase; test: Substrate specificity, relative enzyme activity by oxygen-electrode method; format: biochemical; details: purified enzyme; for Relative activity (%): substrate 10 mM, L-Lysine = 100
Procedure: A variety of substrates listed in the following table were subjected to the action of the purified enzyme of the present invention, and the relative enzyme activities thereof were determined according to the oxygen-electrode method.
The activity of the present enzyme was measured in accordance with Soda's method (Analytical Biochemistry Vol. 25, p. 228, 1968) in the following manner. A reaction mixture consisting of 0.7 ml of 0.1 M potassium phosphate buffer (pH 8.0), 0.1 ml of catalase (750 U/ml), 0.1 ml of 0.1 M L-lysine solution and 0.1 ml of the present enzyme solution was incubated at 37° C. for 20 minutes with gentle shaking. After the incubation the reaction was terminated by the addition of 0.1 ml of 25% trichloroacetic acid. To the resulting reaction mixture were added 1.9 ml of 1 M acetate buffer (pH 5.0) and 0.8 ml of 0.1% 3-methyl-2-benzothiazolone hydrazone hydrochloride solution. The mixture was further incubated at 30° C. for 30 minutes and then allowed to cool to room temperature, after which measurement of optical density at 318 nm was carried out. The formed α-keto-ε -aminocaproic acid thus formed was determined from the resulting calibration curve. One unit of the enzyme was defined as the quantity of the enzyme catalyzing the formation of 1 μmol of α-keto-ε-aminocaproic acid at 37° C. per minute. The relative activity of the enzyme was also assayed by manometric and polarographic determination of the oxygen consumption.

L-lysine α-oxidase [2] = target: T1, L-lysine α-oxidase; test: Enzyme activity in the presence of metallic ions and additives (inhibition, activation, stabilization); format: biochemical; details: for Relative activity (%) in presence of metallic ions: metallic ions 1mM; for Effect on enzyme activity (in words): enzyme activity measured in presence of the additive
Procedure: The enzyme activity was measured in the presence of various metallic ions and various additives. The activator has not been found. The enzyme was stabilized by sodium chloride, potassium chloride, phosphates and the like.

[3] = tested on: L5178 Y mouse leukemic cells; details: L5178Y cells, 10^5 cells/ml, 37° C., 48 hours
Procedure: In this experiment, the antitumor activity in vitro was determined by measuring the proliferation-inhibition activity against the cultured L5178 Y mouse leukemic cells. More specifically, 0.1 ml of the sample diluted with a phosphate-buffered saline (PBS) was added to 0.9 ml of the cultured L5178Y cell suspension (10^5 cells/ml) with the logarithmic growth phase. The mixture was incubated, at 37° C. for 48 hours in a carbon dioxide incubator, and then the number of the cells was measured by means of a microcell counter.

[4] = substrate: NCCC[C@H](N)C(=O)O; test: purified protein, by the assay type; details: other: purified enzyme of Example 1
[5] = substrate: NCCCC[C@H](N)C(=O)O; test: Km values of the enzyme for amino acids; format: biochemical, Trichoderma viride; details: other: purified enzyme of Example 1
[6] = substrate: N[C@@H](Cc1ccccc1)C(=O)O; test: Km values of the enzyme for amino acids; format: biochemical, Trichoderma viride; details: other: purified enzyme of Example 1
[7] = inhibitor concentration not given

Row | Molecule | Relative activity (%) (L-lysine α-oxidase [1]) | other results
1 | NCCCCCC(N)C(=O)O (racemic) [D,L-Homolysine] | 31.1% | –
2 | NCCC(N)C(=O)O (centres unmarked) [2,4-Diaminobutyric acid] | < 0.5% | –
3 | [Ba+2] [Ba] | – | Relative activity (%) in presence of metallic ions (L-lysine α-oxidase [2]): 100.0%
4 | [Ca+2] [Ca] | – | Relative activity (%) in presence of metallic ions (L-lysine α-oxidase [2]): 102.5%
5 | NCCCCCN [Cadaverine] | < 0.5% | –
6 | [Co+2] [Co] | – | Relative activity (%) in presence of metallic ions (L-lysine α-oxidase [2]): 91.6%
7 | [Cu+2] [Cu] | – | Effect on enzyme activity (in words) (L-lysine α-oxidase [2]): inhibited; Relative activity (%) in presence of metallic ions (L-lysine α-oxidase [2]): 78.5%
8 | N[C@@H](CS)C(=O)O [Cysteine] | – | Relative activity (%) in presence of inhibitors (L-lysine α-oxidase [2]; [7]): 100.3%
9 | NCCCC[C@@H](N)C(=O)O [D-Lysine] | < 0.5% | –
10 | O=C(O)CN(CCN(CC(=O)O)CC(=O)O)CC(=O)O [EDTA, Ethylenediaminetetraacetic acid] | – | Relative activity (%) in presence of inhibitors (L-lysine α-oxidase [2]): 93.8%
11 | N[C@@H](CCC(=O)N[C@@H](CS)C(=O)NCC(=O)O)C(=O)O [Glutathione] | – | Relative activity (%) in presence of inhibitors (L-lysine α-oxidase [2]): 103.5%
12 | NC(=O)NCCCC[C@H](N)C(=O)O [Homocitrulline] | < 0.5% | –
13 | [K+] [K] | – | Relative activity (%) in presence of metallic ions (L-lysine α-oxidase [2]): 100.0%
14 | C[C@H](N)C(=O)O [L-Alanine] | < 0.5% | –
15 | N=C(N)NCCC[C@H](N)C(=O)O [L-Arginine] | 6.1% | Activity of the enzyme to the amino acid (in words) (L-lysine α-oxidase [1]): some activities
16 | NC(=O)C[C@H](N)C(=O)O [L-Asparagine] | < 0.5% | –
17 | N[C@@H](CC(=O)O)C(=O)O [L-Aspartic acid] | < 0.5% | –
18 | NC(=O)NCCC[C@H](N)C(=O)O [L-Citrulline] | < 0.5% | –
19 | N[C@@H](CS)C(=O)O [L-Cysteine] | < 0.5% | –
20 | N[C@@H](CCC(=O)O)C(=O)O [L-Glutamic acid] | < 0.5% | –

Row | Molecule | Relative activity (%) (L-lysine α-oxidase [1]) | other results
21 | NC(=O)CC[C@H](N)C(=O)O [L-Glutamine] | < 0.5% | –
22 | NCC(=O)O [L-Glycine] | < 0.5% | –
23 | N[C@@H](Cc1c[nH]cn1)C(=O)O [L-Histidine] | 3.8% | Activity of the enzyme to the amino acid (in words) (L-lysine α-oxidase [1]): some activities
24 | O=C(O)[C@@H]1C[C@@H](O)CN1 [L-Hydroxyproline] | < 0.5% | –
25 | CC[C@H](C)[C@H](N)C(=O)O [L-Isoleucine] | < 0.5% | –
26 | CC(C)C[C@H](N)C(=O)O [L-Leucine] | < 0.5% | –
27 | CCOC(=O)[C@@H](N)CCCCN [L-Lysine ethyl ester] | 83.3% | –
28 | NCCCC[C@H](N)C(=O)NO [L-Lysine hydroxamate] | 62.1% | –
29 | NCCCC[C@H](N)C(=O)O [L-Lysine] | 100.0% | –
30 | CSCC[C@H](N)C(=O)O [L-Methionine] | < 0.5% | –
31 | NCCC[C@H](N)C(=O)O [L-Ornithine] | 18.2% | Activity of the enzyme to the amino acid (in words) (L-lysine α-oxidase [1]): some activities
32 | N[C@@H](Cc1ccccc1)C(=O)O [L-Phenylalanine] | 8.3% | Activity of the enzyme to the amino acid (in words) (L-lysine α-oxidase [1]): some activities
33 | O=C(O)[C@@H]1CCCN1 [L-Proline] | < 0.5% | –
34 | N[C@@H](CO)C(=O)O [L-Serine] | < 0.5% | –
35 | C[C@@H](O)[C@H](N)C(=O)O [L-Threonine] | < 0.5% | –
36 | N[C@@H](Cc1c[nH]c2ccccc12)C(=O)O [L-Tryptophan] | < 0.5% | –
37 | CC(C)[C@H](N)C(=O)O [L-Valine] | < 0.5% | –
38 | [Li+] [Li] | – | Relative activity (%) in presence of metallic ions (L-lysine α-oxidase [2]): 98.4%
39 | [Cl][Hg][Cl] [Mercuric chloride] | – | Effect on enzyme activity (in words) (L-lysine α-oxidase [2]): inhibited; Relative activity (%) in presence of inhibitors (L-lysine α-oxidase [2]; [7]): 19.2%
40 | [Mg+2] [Mg] | – | Relative activity (%) in presence of metallic ions (L-lysine α-oxidase [2]): 99.6%

Row | Molecule | Relative activity (%) (L-lysine α-oxidase [1]) | other results
41 | [Mn+2] [Mn] | – | Relative activity (%) in presence of metallic ions (L-lysine α-oxidase [2]): 97.1%
42 | CCN1C(=O)C=CC1=O [N-Ethylmaleimide] | – | Relative activity (%) in presence of inhibitors (L-lysine α-oxidase [2]; [7]): 108.7%
43 | O=C(O)c1cc[c]([Hg][Cl])cc1 [PCMB, para-Chloromercuribenzoic acid] | – | Effect on enzyme activity (in words) (L-lysine α-oxidase [2]): inhibited; Relative activity (%) in presence of inhibitors (L-lysine α-oxidase [2]; [7]): 42.9%
44 | NCCCCN [Putrescine] | < 0.5% | –
45 | N[C@@H](CSCCc1ccncc1)C(=O)O [S-(β-4-Pyridylethyl)-L-cysteine] | 2.7% | –
46 | NCCSC[C@H](N)C(=O)O [S-(β-Aminoethyl)-L-cysteine] | 9.8% | –
47 | CC(N)CSC[C@H](N)C(=O)O (stereo partly drawn) [S-(β-Aminopropyl-L-cysteine] | 34.8% | –
48 | O=S(=O)(O)c1cc(O)c(O)c(S(=O)(=O)O)c1 [Tiron] | – | Relative activity (%) in presence of inhibitors (L-lysine α-oxidase [2]; [7]): 96.5%
49 | [Zn+2] [Zn] | – | Relative activity (%) in presence of metallic ions (L-lysine α-oxidase [2]): 92.7%
50 | [Cl-].[K+] [potassium chloride] | – | Stabilization of the enzyme (in words) (L-lysine α-oxidase [2]): stabilized
51 | [Cl-].[Na+] [sodium chloride] | – | Stabilization of the enzyme (in words) (L-lysine α-oxidase [2]): stabilized
52 | NCC(N)C(=O)O (stereo not drawn) [α,β-Diaminopropionic acid] | < 0.5% | –
53 | NCCCCC(=O)O [δ-Aminovareric acid] | < 0.5% | –
54 | NCC(O)CC[C@H](N)C(=O)O (some centres unmarked) [δ-Hydroxy-lysine] | 37.1% | –
55 | NCCCCCC(=O)O [ε-Aminocaproic acid] | < 0.5% | –
56 | CC(=O)NCCCC[C@H](N)C(=O)O [ε-N-Acetyl-L-lysine] | < 0.5% | –
57 | L-lysine α-oxidase | – | Concentration giving complete inhibition of proliferation [3]: 3.3 mU/ml
58 | phosphates | – | Stabilization of the enzyme (in words) (L-lysine α-oxidase [2]): stabilized
59 | B1 | – | Km [4]: 440 µM; Km [5]: 40 µM; Km [6]: 14000 µM

Source: patent US4234691A (Yamasa Shoyu Kabushiki Kaisha, priority 1978, dated 1980)
